Laboratory results as given in BindingDB's records for doi:10.3109/14756366.2011.636362 (Aristotle University of Thessaloniki, 2013).

The molecules below were run against Gag-Pol polyprotein (Human immunodeficiency virus type 1 group M subtype B (isolate HXB2), UniProt P04585) (assay: HIV-1 RT Activity Assay). Settings: pH 7.8; 37 °C.
Experimental: HIV-1 Reverse Transcriptase Activity was measured using the colorimetric photometric immunoassay kit provided by Roche. Estimation of RT activity is achieved by quantification of the DNA synthesized by RT in a known period of time. Incubation was performed for 2 h at 37°C. PolyA:oligodT RNA template:primer hybrid at a concentration of 2.2 μg/ml was incubated with 20 nMof purified recombinant HIV-1 reverse transcriptase in a 50 μL incubation mixture containing 50 mM Tris-HCl pH 7.8, 160 mM KCl, 11 mM MgCl2, 5.3 mM DTT, 0.5 mM EDTA, 0.3% Triton-X 100 and 10 μM dTTP (unless otherwise mentioned) in the presence of digoxigeninconjugated dUTP (dUTP-DIG) and biotin-conjugateddUTP (dUTP-biotin). In a following step, the synthesised biotin-DIG-labelled DNA was bound to the surface of streptavidin-coated ELISA-plate wells. After washing out the unbound material, an antibody to digoxigenin, conjugated to peroxidase (anti-DIG-POD), was added and bound to the digoxigenin-labelled nucleotides. After a washing step and addition of the appropriate substrate, peroxidase catalyzed the transformation of the substrate, ABTS, to a yellow coloured reaction product. 15 min after ABTS addition, the coloured product was measured using a microtitre plate (ELISA) reader. For the estimation of inhibitory action of the compounds, reverse transcriptase was incubated in the presence of the potential inhibitor for 45 min at room temperature before addition of its substrates (pre-incubation).

SMILES | IC50
O=C1CSC(c2c(Cl)cccc2Cl)N1c1nc2c(Cl)cccc2s1 (stereo not given) [3-(4-Chlorobenzo[d]thiazol-2-yl)-2-(2,6-dichlorophenyl)thiazolidin-4-one (6)] | > 40 µM
O=C1CSC(c2c(F)cccc2F)N1c1nc2c(Cl)cccc2s1 (stereo not given) [3-(4-Chlorobenzo[d]thiazol-2-yl)-2-(2,6-difluorophenyl)thiazolidin-4-one (8)] | > 40 µM
O=C1CSC(c2c(F)cccc2Cl)N1c1nc2c(Cl)cccc2s1 (stereo not given) [3-(4-Chlorobenzo[d]thiazol-2-yl)-2-(2-chloro-6-fluorophenyl)thiazolidin-4-one (7)] | 0.04 µM
COc1cccc2sc(N3C(=O)CSC3c3c(Cl)cccc3Cl)nc12 (stereo not given) [3-(4-Methoxybenzo[d]thiazol-2-yl)-2-(2,6-dichlorophenyl)thiazolidin-4-one (15)] | 3 µM
COc1cccc2sc(N3C(=O)CSC3c3c(F)cccc3Cl)nc12 (stereo not given) [3-(4-Methoxybenzo[d]thiazol-2-yl)-2-(2-chloro-6-fluorophenyl)thiazolidin-4-one (16)] | > 40 µM
O=C1CSC(c2c(Cl)cccc2Cl)N1c1nc2ccc(Cl)cc2s1 (stereo not given) [3-(6-Chlorobenzo[d]thiazol-2-yl)-2-(2,6-dichlorophenyl)thiazolidin-4-one (3)] | > 40 µM
O=C1CSC(c2c(F)cccc2Cl)N1c1nc2ccc(Cl)cc2s1 (stereo not given) [3-(6-Chlorobenzo[d]thiazol-2-yl)-2-(2-chloro-6-fluorophenyl)thiazolidin-4-one (4)] | > 40 µM
CCOc1ccc2nc(N3C(=O)CSC3c3c(F)cccc3F)sc2c1 (stereo not given) [3-(6-Ethoxybenzo[d]thiazol-2-yl)-2-(2,6-difluorophenyl)thiazolidin-4-one (19)] | > 40 µM
CCOc1ccc2nc(N3C(=O)CSC3c3c(F)cccc3Cl)sc2c1 (stereo not given) [3-(6-Ethoxybenzo[d]thiazol-2-yl)-2-(2-chloro-6-fluorophenyl)thiazolidin-4-one (18)] | 3.4 µM
O=C1CSC(c2c(Cl)cccc2Cl)N1c1nc2ccc(F)cc2s1 (stereo not given) [3-(6-Fluorobenzo[d]thiazol-2-yl)-2-(2,6-dichlorophenyl)thiazolidin-4-one (9)] | 0.25 µM
COc1ccc2nc(N3C(=O)CSC3c3c(Cl)cccc3Cl)sc2c1 (stereo not given) [3-(6-Methoxybenzo[d]thiazol-2-yl)-2-(2,6-dichlorophenyl)thiazolidin-4-one (12)] | > 40 µM
COc1ccc2nc(N3C(=O)CSC3c3c(F)cccc3F)sc2c1 (stereo not given) [3-(6-Methoxybenzo[d]thiazol-2-yl)-2-(2,6-difluorophenyl)thiazolidin-4-one (14)] | > 40 µM
COc1ccc2nc(N3C(=O)CSC3c3c(F)cccc3Cl)sc2c1 (stereo not given) [3-(6-Methoxybenzo[d]thiazol-2-yl)-2-(2-chloro-6-fluorophenyl)thiazolidin-4-one (13)] | > 40 µM
O=C1CSC(c2c(F)cccc2F)N1c1nc2ccccc2s1 (stereo not given) [3-(Benzo[d]thiazol-2-yl)-2-(2,6-difluorophenyl)thiazolidin-4-one (1)] | > 40 µM
O=C1CSC(c2c(F)cccc2Cl)N1c1nc2ccccc2s1 (stereo not given) [3-(Benzo[d]thiazol-2-yl)-2-(2-chloro-6-fluorophenyl)thiazolidin-4-one (2)] | > 40 µM
